Measured values taken from PMC11649784, “Re-design and evaluation of diclofenac-based carborane-substituted prodrugs and their anti-cancer potential” (Scientific Reports, 2024).

What was measured:
[1] = system: human fetal lung fibroblast cell line MRC-5; assay: Viability of non-malignant MRC-5 cells; format: cell-based; conditions: column head not given
Description: The biological study was performed on a murine colon adenocarcinoma cell line (MC38), two human colorectal carcinoma cell lines (HCT116 and HT29), and a human fetal lung fibroblast cell line (MRC-5). All cell lines are commercially available and were obtained from the American Type Culture Collection (ATCC). The human cell lines were kept in HEPES-buffered RPMI-1640 medium supplemented with 10 [drawing 141] heat-inactivated FCS, 2 mM L-glutamine, 0.01 [drawing 142] sodium pyruvate, penicillin (100 units mL^−1), and, streptomycin ( [drawing 143] mL^-1). The MC38 cell line was maintained in DMEM medium additionally supplemented with 1 [drawing 144] non-essential amino acids. Cells were grown at [drawing 145] in a humidified atmosphere with 5 [drawing 146] [drawing 147] . Peritoneal exudate cells (PECs) were isolated from healthy C57BL/6 mice (males, n = 3, 3 months old, weight 22–25 g) by performing an ice-cold PBS peritoneal lavage. Mice were sacrificed by cervical dislocation. Cells were cultivated for 4 h when nonadherent population was removed by washing in PBS, and additionally cultivated overnight in HEPES-buffered RPMI-1640 medium supplemented with 5 [drawing 148] heat-inactivated FCS before treatment with experimental drugs. […]
After 72 h, cell viability was determined using MTT and CV tests. […] For both viability tests, the absorbance of the developed colors was measured using an automated microplate reader at 570 nm with a reference wavelength of 670 nm. The results were expressed as a percentage of the control values of the untreated cells, which were arbitrarily set at 100 [drawing 160] . IC50 values, defined as 50 [drawing 161] inhibitory concentration, were calculated using a four-parameter logistic function and presented as mean±SD. […] To evaluate the nature of the detected autophagy, a combined treatment with compound 3 and the autophagy inhibitors chloroquine (Chlq) and 3-methyladenine (3-MA) was carried out. […] After 72 h, cell viability was determined by CV assay.

MC38 cells = assay: CFSE cell proliferation, flow cytometry; format: cell-based, murine; conditions: IC50 concentration, 72 h
Description: For all flow cytometric analyses, MC38 cells were seeded overnight and then treated with the IC50 concentration of compound 3 for 72 h. The cells were harvested, washed, and stained according to the manufacturer’s instructions for each method. To determine whether the compound induces apoptosis, cells were double stained with AnnV-FITC and PI (15 μg mL^–1) for 15 min at RT in the dark. To detect caspase activity, cells were stained with the FITC-conjugated caspase inhibitor ApoStat for 30 min at [drawing 162] . To detect cell proliferation, MC38 cells were stained with CFSE (1 μM) for 10 min at [drawing 163] prior to seeding and then treated as previously described. To detect intracellular production of Reactive oxygen/nitrogen Species (ROS/RNS), MC38 cells were prestained with DHR 123 (1 [drawing 164] M) for 20 min at [drawing 165] , then seeded and exposed to an IC50 concentration of compound 3. After 72 h incubation, all samples were washed, resuspended in PBS and fluorescence intensity was analyzed using a CytoFLEX [drawing 166] flow cytometer (Beckman Coulter, Pasadena, CA, USA), while the data obtained was evaluated using the [drawing 167] software program.

ovine COX-1 = biological target: T1, ovine COX-1 (Ovis aries, UniProt P05979); assay: COX Fluorescent Inhibitor Screening Assay, COX-1; format: biochemical; conditions: absolute IC50, 0.1 to 100 μM in duplicate, 95% CI in brackets
T1 construct: purchased Cayman Chemical Company, Ann Arbor, MI, USA
T1 sequence (P05979 25-600): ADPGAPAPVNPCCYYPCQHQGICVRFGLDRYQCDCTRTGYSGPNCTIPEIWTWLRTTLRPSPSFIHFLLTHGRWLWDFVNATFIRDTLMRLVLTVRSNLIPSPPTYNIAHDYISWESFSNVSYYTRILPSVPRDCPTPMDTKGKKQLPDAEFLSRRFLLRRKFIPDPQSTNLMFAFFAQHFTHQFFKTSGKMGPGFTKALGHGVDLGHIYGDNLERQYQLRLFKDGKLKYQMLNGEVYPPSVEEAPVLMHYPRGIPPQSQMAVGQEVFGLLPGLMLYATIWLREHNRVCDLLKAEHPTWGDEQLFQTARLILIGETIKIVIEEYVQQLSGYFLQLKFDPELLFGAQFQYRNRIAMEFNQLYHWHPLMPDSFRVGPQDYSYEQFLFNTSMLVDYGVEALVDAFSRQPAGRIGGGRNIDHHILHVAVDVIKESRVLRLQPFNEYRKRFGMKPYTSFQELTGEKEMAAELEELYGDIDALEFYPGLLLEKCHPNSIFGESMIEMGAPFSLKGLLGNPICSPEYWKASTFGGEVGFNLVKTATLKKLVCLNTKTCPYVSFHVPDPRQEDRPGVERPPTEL
Description: The COX inhibition activity against ovine COX-1 and human recombinant COX-2 was determined using the COX Fluorescent Inhibitor Screening Assay Kit (Cayman Chemical Company, Ann Arbor, MI, USA) according to the manufacturer’s instructions as reported.

1-[2-(7,8-dicarba-nido-undecaborate)]- [drawing 126] H-indolium-2-amine [compound 3]
Selectivity index (IC50 value of primary vs. cancer cells), MRC-5, second cancer cell line column ([1]; presumably HCT116): 1.5
Selectivity index (IC50 value of primary vs. cancer cells), MRC-5, third cancer cell line column ([1]; presumably HT29): 0.98
Selectivity index (IC50 value of primary vs. cancer cells), MRC-5, first cancer cell line column ([1]; presumably MC38): 1.81
CFSE mean fluorescence intensity (undivided cell fraction) (MC38 cells): significantly higher in comparison to controls
IC50 (ovine COX-1): 15.3 µM
